Experimental data taken from patent US20230193262A1, “Nucleic acid molecules capable of modulating target gene expression and uses thereof” (KOREA ADVANCED INSTITUTE OF SCIENCE AND TECHNOLOGY, priority 2021, published 2023).
“Also recorded” adds a separate entry of the source. In the oligonucleotide strings, read from the 5' end, every base follows the letter of its sugar. An asterisk marks phosphorothioate; unmarked linkages are phosphodiester. Other units and linkages are bracketed, terminal groups are in braces. A string of capitals states the bases alone. d = 2'-deoxy (DNA)

How the values were obtained:
Assay type in all cases: cell-based
[1] = system: Hela cells; assay: Cell viability / apoptosis (CCK-8) in Hela cells
Method: (§1) The miRNA triggers were assayed for cytotoxicity and apoptosis induction, using the CCK-8 (Cell Counting Kit-8) (Dojindo, Kumamoto, Japan) according to the manufacturer's instruction. Cells were incubated in 96-well plates (5×10^3 cells/well) at 37° C. for 24 hours under a 5% CO2 atmosphere, followed by transfection. Three days after transfection, the medium was removed. A 10-fold dilution of CCK-8 solution in DMEM was added to the cells which were then incubated at 37° C. for 2 hours. After incubation, absorbance was read at 450 nm on Tecan Infinite M200 pro microplate reader (Mnnedorf, Switzerland).
(§2) The linear miRNA triggers or siRNAs (siLuc and siMcl-1) prepared above were transfected into Hela, Hela-141, and Hela-200c cells which were then measured for cell viability. The results are depicted in FIG. 15.
(§3) The hairpin miRNA triggers prepared above were transfected into Hela and Hela-141 cells which were then assayed for apoptosis. As a control, the siRNA (siMcl-1; Table 14) which can repress the expression of mcl-1 was transfected to Hela and Hela-141 cells and measured for apoptotic activity.

[2] = system: MCF-7 breast cancer cells; assay: Cell viability / apoptosis in MCF-7; settings: single siRNA, final concentration 60 nM
Method: as §1
An siRNA targeting bcl-2, bcl-xL, or mcl-1 was transfected into MCF-7 breast cancer cells and PANC-1 pancreatic cancer cells. By using qRT-PCR, establishment was made of a condition under which the expression of each target gene is decreased by 80% or more (transfection was performed at a concentration of 60 nM with the aid of Lipofectamine). As a negative control, a Luc (Luciferase)-targeting siRNA (siLuc) was used. Under the same condition of decreasing the expression of each target gene by 80% or more, the cells transfected with the siRNAs were measured for apoptosis, and the results are depicted in FIGS. 14a and 14b.
Linear miRNA triggers that could bind to miR-141 or let7f and target bcl-xL or mcl-1 were prepared and transfected alone or in combination into the breast cancer cell line MCF-7 which was then measured for cell viability. Every nucleotide of the triggers and controls was chemically modified with 2′-OMe.
First, MCF-7 was measured for cell viability after treatment with siMCL-1, siBCL-xL, and siBCL-2 (FIG. 48). […] The final concentration of the siRNAs was 60 nM.
Next, examination was made of the apoptosis when two or more genes were regulated together. MCF-7 was measured for cell viability after treatment with siMCL-1+siBCL-xL, siMCL-1+siBCL-2, siBCL-xL+siBCL-2, and siMCL-1+siBCL-xL+siBCL-2 (FIG. 49).
Finally, experiments under all the conditions (individual and simultaneous regulation) were conducted simultaneously so as to compare effects thereof. […]

[3] = system: Hela-141 cells; assay: Cell viability / apoptosis (CCK-8) in Hela-141 cells; settings: Hela-141 cells
Method: as §1, §2, §3

[4] = system: Hela-200c cells; assay: Cell viability / apoptosis (CCK-8) in Hela-200c cells
Method: as §1, §2

[5] = system: miR-155; assay: miR-155 expression after treatment with AML therapeutic agents; settings: FLT3-ITD mutated AML cell line (NOLM-14); IC50 dose, 37° C., 72 hours
Method: The FLT3-ITD mutated AML cell line (NOLM-14) was treated with an IC50 dose of cytarabine, azacitidine, decitabine, venetoclax, or gilteritinib, which is used as standard therapeutic agents for AML, at 37° C. for 72 hours, followed by measuring expression levels of miR-155.

[6] = system: GFP mRNA; assay: GFP fluorescence intensity in GFP-expressing Hela-141 cells; settings: siGFP compared to siLuc, trigger 30 to 60 nM
Description: A GFP fluorescent protein-expressing plasmid (used in Chen L L, DeCerbo J N, Carmichael G G. 2008. Alu element-mediated gene silencing. EMBO J 27: 1694-1705) was transfected into Hela-141 cells to prepare GFP-expressing Hela-141 cells. As stated in Reference Example 1, a linear miRNA trigger (LP; GFP_141_141), which can target GFP mRNA (=complementarily bind to GFP mRNA to regulate the expression of GFP) and complementarily bind to miR-141, and siRNAs which target GFP and Luc (Luciferase), respectively, were synthesized in Bioneer Inc. Sequences of the LP and siRNAs and types and positions of chemical modifications in each sequence are listed in Table 8, below.
Above all, siLuc and siGFP were transfected into the GFP-expressing Hela-141 cells which were then measured for fluorescence intensity on an ELISA reader. […] In addition, the linear miRNA trigger (GFP(1)_141_141) was transfected into the GFP-expressing Hela-141 cells which were then measured for fluorescence intensity. The result is depicted in FIG. 8. For the transfection, the GFP plasmid and GFP_141_141 were used at a concentration of 0.5 to 1 μg/ml and 30 to 60 nM, respectively.

[7] = system: cells; assay: Cytotoxicity (CCK-8 cell viability) of chemically modified miRNA triggers
Method: as §1
In addition, FPS HP and 2′-OMe HP, which were the most resistant to degradation in biological samples, were analyzed for cytotoxicity. In this regard, the HP in which the entire nucleotides of miRNA trigger (LP) were modified with PS (expressed as PS in Table 6 and FIG. 6), the linear probe in which the entire nucleotides of miRNA trigger (LP) were modified with 2′-O-Me (expressed as 2′O-me in Table 6 and FIG. 6), the control DNA LP (expressed as DNA in Table 6 and FIG. 6), or siRNA was transfected into cells which were then measured for cell viability using the method of Reference Example 9. The result is depicted in FIG. 6. […]

[8] = system: Bcl-xL; assay: Western blot of Bcl-xL protein; settings: MDA-MB-453
Method: miRNA triggers were transfected into cells in the same manner as in Reference Example 4. After 72 hours, the cells were collected using a cell scraper and lysed with a RIPA buffer (NaCl 150 mM, EDTA 5 mM, Tris 50 mM, NP-40 1.0%, sodium deoxycholate 0.5%, SDS 0.1%). The cell lysate was sonicated 15 times, each for 20 sec, with a halt for 30 sec every sonication. Following centrifugation at 5,000 g for 5 min, the supernatant was taken and used to extract proteins therefrom. A total of 30-40 μg of protein sample was separated in 10-15% SDS-PAGE gel and transferred onto a PVDF membrane through a semi-dry blotting system. The membrane was blocked for 1 hour in 5% skimmed milk and incubated for 2 hours with a 1,000-fold dilution of a primary antibody in, 1% skimmed milk. […] The membrane incubated with the secondary antibody was washed three times with 1×PBST for 10 min each wash, and then reacted with Clarity Western ECL Substrate (#1705061, Bio-Rad), after which images were obtained and analyzed using ChemiDoc (Bio-rad, Hercules, USA).
The cells transfected with the selected miRNA triggers were measured for protein expression levels of the target Bcl-xL and the apoptotic marker cleaved PARP through western blotting, and the results are depicted in FIG. 32b. […]

[9] = system: breast cancer cell line MDA-MB-453; assay: Cell viability / apoptosis in MDA-MB-453; settings: MDA-MB-453 (does not express miR-222)
Method: as §1
(§4) The selected linear miRNA triggers (bcl-xL(1)_22_2222 and bcl-xL(2)_222_222) were transfected into the breast cancer cell line MDA-MB-453 to which miR-222 is not endogenous. Cell viability, and the mRNA and protein expression levels of the target gene (bcl-xL) were measured and the results are depicted in FIGS. 33a to 33c.
The hairpin miRNA triggers prepared above were transfected into MDA-MB-231 and MDA-MB-453 cells which were then measured for cell viability. The results are depicted in FIG. 37.
The MCL-1-222-222 miRNA trigger, which utilizes miR-222 to regulate MCL-1 gene, and the BCL-xL-let7f-let7f miRNA trigger, which utilizes miR-let7f to regulate BCL-xL gene, were administered to MDA-MB-231 and MDA-MB-453.
Next, apoptosis was examined when the two types of miRNA triggers were co-administered to cells. The total concentration of the two triggers was 120 nM, which was the same as for individual miRNAs. The results are depicted in FIG. 47.

[10] = system: BCL-xL mRNA; assay: bcl-xL mRNA expression / gene regulation efficiency; settings: MDA-MB-453
Method: In the same manner as in Reference Example 4, miRNA triggers were transfected into cells. After 48 hours, total RNA was extracted using TRIzol (Thermo Fisher Scientific) according to the manufacturer's instruction. The purified RNA was treated with DNase I and then reverse transcribed in the presence of RevertAid reverse transcriptase (Thermo Fisher Scientific), with random hexamers (Thermo Fisher Scientific) serving as primers. For use in amplification of target genes, primers for target genes were added, together with the cDNA, to the SYBR Green PCR master mix (Thermo Fisher Scientific). RT-qPCR was conducted on a StepOnePlus real-time PCR system. Cq values obtained from this analysis was quantitatively analyzed based on the 2^−ΔΔC(t) method.
as §4
After treatment with miRNA triggers, mRNA expression levels of the target gene BCL-xL were measured. […]

siMcl-1: siRNA targeting mcl-1; SEQ ID NO 64 (AAAUUCGAUACUUCCUUCG; listed as RNA, chemistry not given here) [reference compound]
apoptosis / cell viability [1]: induced apoptosis; also recorded: apoptotic effect | apoptosis (cell viability) [2]: apoptosis was detected; also recorded: greatest apoptosis | apoptosis / cell viability [3]: induced apoptosis; also recorded: apoptotic effect | apoptosis / cell viability [4]: induced apoptosis

Nc1ccn([C@@H]2O[C@H](CO)[C@@H](O)[C@@H]2O)c(=O)n1 [cytarabine]
miR-155 expression [5]: did not repress miR-155 express

Nc1ncn([C@@H]2O[C@H](CO)[C@@H](O)[C@H]2O)c(=O)n1 [azacitidine]
miR-155 expression [5]: did not repress miR-155 express

siGFP: siRNA which targets GFP; SEQ ID NO 44 (UUAUGUUUCAGGUUCAGGG; RNA, backbone not given here) [reference compound]
GFP fluorescence intensity [6]: significantly reduced fluorescence intensity

PS: miRNA trigger (LP), entire nucleotides modified with PS, random sequences; SEQ ID NO 37 (dT*dC*dG*dA*dA*dG*dT*dA*dC*dT*dC*dA*dG*dC*dG*dT*dA*dA*dG*dT*dT*dC*dG*dA*dA*dG*dT*dA*dC*dT*dC*dA*dG*dC*dG*dT*dA*dA*dG*dT*dT*dC*dG*dA*dA*dG*dT*dA*dC*dT*dC*dA*dG*dC*dG*dT*dA*dA*dG*dT)
cell viability ([7]; transfected cells, CCK-8, random sequences): less than 40%

siBcl-xL: siRNA targeting bcl-xL; SEQ ID NO 63 (UUGGUCCCUCAGUAUGGUC; listed as RNA, chemistry not given here)
apoptosis (cell viability) [2]: apoptosis was detected

bcl-xL(2)_222_222: linear miRNA trigger binding miR-222 and knocking down bcl-xL; SEQ ID NO 107 (ACCCAGUAGCCAGAUGUAGCUACCCAGUAGCCAGAUGUAGCUUACCUGCCAGCCUCCUU; all 2'-O-methyl, backbone not given here)
protein expression level of target bcl-xL [8]: did not significantly change | cell viability [9]: did not significantly change | mRNA expression level of target bcl-xL [10]: did not significantly change

2′-O-Me: linear probe, entire nucleotides modified with 2′-O-Me; SEQ ID NO 38 (UCGAAGUACUCAGCGUAAGUUCGAAGUACUCAGCGUAAGUUCGAAGUACUCAGCGUAAGU; all 2'-O-methyl, backbone not given here)
cell viability versus non-transfected negative control (NT) ([7]; CCK-8): not significantly different in viability from the negative control

B1: GFP(1)_141_141: linear miRNA trigger targeting GFP mRNA and binding miR-141; SEQ ID NO 41 (nucleic acid)
chain: CCAUCUUUACCUCACAGUGUUACCAUCUUUACCUCACAGUGUUAUUAUGUUUCAGGUUCAGGGGGA
modifications: all 2'-O-methyl, backbone not given here
GFP fluorescence intensity [6]: reduced GFP fluorescence intensity in a dose-dependent manner
